Publication PMC3081989 (Biochemistry, 2010)
Values belong to the compound of their own block, whether it stands above or below them. Where a SMILES comes first, the peptide text is derived from it.

What was measured:
hRXRα-LBD homodimer = assay: hydrogen deuterium exchange mass spectrometry; format: binding, human
humans = details: cited from earlier work
[1] = target: T1, hRXRα-LBD:9cRA homodimers (Homo sapiens, UniProt P19793); assay: isothermal titration calorimetry; details: 37 °C, buffer C pH 8.0, single-site binding model
T1 sequence (P19793 223-462): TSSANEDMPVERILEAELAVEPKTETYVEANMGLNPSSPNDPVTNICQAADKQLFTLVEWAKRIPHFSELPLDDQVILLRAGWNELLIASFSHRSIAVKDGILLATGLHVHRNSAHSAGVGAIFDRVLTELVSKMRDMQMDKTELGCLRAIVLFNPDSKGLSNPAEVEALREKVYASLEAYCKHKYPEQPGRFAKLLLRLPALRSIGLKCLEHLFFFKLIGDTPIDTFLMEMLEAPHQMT

[2] = target: GRIP-1 (NCOA2/TIF2) NR-box II coactivator peptide, 13-mer (UniProt Q15596); assay: ITC; details: pH 8.0, 25 °C, 50 mM NaCl, buffer C: 10 mM Tris

change in deuterium incorporation of peptides around the ligand binding pocket (hRXRα-LBD homodimer; relative to apo-hRXRα-LBD, upon 9cRA binding): 10–37%
Compound: CC1=C(/C=C/C(C)=C\C=C\C(C)=C\C(=O)O)C(C)(C)CCC1 [9cRA, 9-cis-retinoic acid]
reduction in deuterium incorporation, peptide L419-F438 (H11) (hRXRα-LBD homodimer; following 15 s of deuterium incorporation, 9cRA alone): > 20%
rate of deuterium incorporation, H12 region (hRXRα-LBD homodimer; hRXRα-LBD:9cRA versus apo-hRXRα-LBD, GRIP-1 added to hRXRα-LBD:9cRA): unaltered rates of incorporation
reduction in deuterium incorporation, peptide L301-L308 (H4) (hRXRα-LBD homodimer; text: upon the addition of GRIP-1 versus in the presence of 9cRA alone): 12%
toxicity (humans; oral administration to humans): displays significant toxicity with oral administration to humans

Kd [1]: 1000 ± 50 nM
Compound: CC[C@H](C)[C@H](NC(=O)[C@H](CCCCN)NC(=O)[C@H](Cc1c[nH]cn1)NC(=O)[C@@H](N)CCCCN)C(=O)N[C@@H](CC(C)C)C(=O)N[C@@H](Cc1c[nH]cn1)C(=O)N[C@@H](CCCNC(=N)N)C(=O)N[C@@H](CC(C)C)C(=O)N[C@@H](CC(C)C)C(=O)N[C@@H](CCC(N)=O)C(=O)N[C@@H](CC(=O)O)C(=O)N[C@@H](CO)C(=O)N[C@@H](CO)C(=O)O [GRIP-1] (H-KHKILHRLLQDSS-OH)

Compound: C=C(c1ccc(C(=O)O)cc1)c1cc2c(cc1C)C(C)(C)CCC2(C)C [Targretin]
dose limiting toxicities compared with 9cRA (humans; oral treatment of cutaneous T-cell lymphoma): significantly fewer dose limiting toxicities than 9cRA

ΔH [2]: -9.15 kcal/mol
Compound: Retinoid X receptor alpha ligand-binding domain, homodimer loaded with 9-cis-retinoic acid (hRXRalpha-LBD:9cRA)
